From US8791132B2, “Compounds and methods for treatment of hypertension” (Medivation Technologies, Inc., priority 2011, dated 2014)
Several values for one entry are separate records, joined by “and”; a condition that tells them apart may be missing. Equal values may be shown once. Read-outs that look alike come from different tables or passages of the source.

How the values were obtained:
[1] = molecular target: T1, human recombinant adrenergic α2B receptor (Homo sapiens, UniProt P18089); assay: Radioligand binding, adrenergic α2B ([3H]Rauwolscine); conditions: for Ki: read-out: Ki α2B
T1 construct: expressed in transfected cells; host or cells: CHO-K1
T1 sequence (P18089 1-450): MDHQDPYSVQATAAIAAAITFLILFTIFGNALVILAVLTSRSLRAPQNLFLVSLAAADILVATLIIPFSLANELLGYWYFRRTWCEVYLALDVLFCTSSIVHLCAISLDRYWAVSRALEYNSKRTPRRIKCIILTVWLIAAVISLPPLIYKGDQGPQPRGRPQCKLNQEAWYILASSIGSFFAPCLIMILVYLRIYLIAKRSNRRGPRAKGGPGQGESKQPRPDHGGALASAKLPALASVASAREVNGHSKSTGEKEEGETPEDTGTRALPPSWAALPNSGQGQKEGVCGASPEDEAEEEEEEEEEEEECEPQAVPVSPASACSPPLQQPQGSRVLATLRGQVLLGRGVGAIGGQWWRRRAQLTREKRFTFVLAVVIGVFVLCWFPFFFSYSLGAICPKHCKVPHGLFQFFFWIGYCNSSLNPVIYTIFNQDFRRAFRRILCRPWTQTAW
Procedure, shortened: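 Receptor expressed in CHO-K1 cells, assayed in 50 mM Tris-HCl pH 7.4 with 12.5 mM MgCl2, 1 mM EDTA and 0.2% BSA. Compounds were incubated with 2.5 nM [3H]Rauwolscine for 60 min at 25° C; 10 μM Prazosin defined non-specific binding. Filter counting gave percent inhibition of specific binding.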

[2] = molecular target: T2, human recombinant adrenergic α2A receptor (Homo sapiens, UniProt P08913); assay: Radioligand binding, adrenergic α2A ([3H]MK-912); conditions: for Percentage inhibition of ligand binding, Adrenergic α2A / Percentage inhibition of ligand binding, Adrenergic α2A (0.1 μM): 0.1 µM
T2 construct: expressed in transfected cells; host or cells: insect Sf9 cells
T2 sequence (P08913 1-465): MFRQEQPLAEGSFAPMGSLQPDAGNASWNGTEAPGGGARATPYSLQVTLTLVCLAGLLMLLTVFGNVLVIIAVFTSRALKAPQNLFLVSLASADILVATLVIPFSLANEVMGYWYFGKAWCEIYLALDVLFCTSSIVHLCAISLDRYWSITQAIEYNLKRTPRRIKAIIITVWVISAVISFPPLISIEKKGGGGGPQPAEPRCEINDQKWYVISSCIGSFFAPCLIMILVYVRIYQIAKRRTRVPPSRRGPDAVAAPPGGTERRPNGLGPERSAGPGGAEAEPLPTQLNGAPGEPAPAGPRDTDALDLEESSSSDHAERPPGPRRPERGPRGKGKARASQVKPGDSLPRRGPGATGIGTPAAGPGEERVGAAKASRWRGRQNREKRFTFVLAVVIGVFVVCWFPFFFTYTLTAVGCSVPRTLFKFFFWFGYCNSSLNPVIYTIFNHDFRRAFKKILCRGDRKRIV
Procedure, shortened: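 Sf9-expressed receptor was incubated with compound for 60 min at 25 °C in modified Tris-HCl buffer, pH 7.4. Nonspecific binding was taken as that remaining with 10 μM WB-4101.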

[3] = molecular target: T3, rat adrenergic α1B receptor (Rattus norvegicus, UniProt P15823); assay: Radioligand binding, adrenergic α1B ([3H]Prazosin); conditions: [3H]Prazosin; for Percentage inhibition of ligand binding, Adrenergic α1B / Percentage inhibition of ligand binding, Adrenergic α1B (0.1 μM): 0.1 µM
T3 construct: rat adrenergic α1B receptor obtained from Wistar Rat liver; from tissue; host or cells: Wistar rat liver
T3 sequence (P15823 1-515): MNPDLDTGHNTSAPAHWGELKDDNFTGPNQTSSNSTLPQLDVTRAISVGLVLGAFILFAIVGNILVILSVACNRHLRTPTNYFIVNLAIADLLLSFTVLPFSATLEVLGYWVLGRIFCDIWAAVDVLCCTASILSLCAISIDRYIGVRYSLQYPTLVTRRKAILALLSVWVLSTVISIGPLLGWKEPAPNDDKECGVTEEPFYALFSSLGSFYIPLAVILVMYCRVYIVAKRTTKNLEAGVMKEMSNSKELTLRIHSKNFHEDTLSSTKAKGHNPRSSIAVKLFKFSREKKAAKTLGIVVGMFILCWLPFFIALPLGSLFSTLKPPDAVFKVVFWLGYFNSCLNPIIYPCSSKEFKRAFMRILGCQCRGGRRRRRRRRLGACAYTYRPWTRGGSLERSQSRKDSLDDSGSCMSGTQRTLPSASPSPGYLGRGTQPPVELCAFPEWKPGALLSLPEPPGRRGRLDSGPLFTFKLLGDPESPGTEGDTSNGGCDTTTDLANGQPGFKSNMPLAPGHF
Procedure, shortened: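 Filter binding with Wistar rat liver α1B preparation: test compound plus 0.25 nM [3H]prazosin, 1 h at 25° C in modified Tris-HCl buffer pH 7.4.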

[4] = compound at 0.03 μM, [3H]Rauwolscine, repeat assays, each datapoint shown, read-out: Percentage inhibition of ligand binding, Adrenergic α2B
[5] = compound at 0.1 μM, [3H]Rauwolscine, repeat assays, each datapoint shown, read-out: Percentage inhibition of ligand binding, Adrenergic α2B
[6] = compound at 0.1 μM, [3H]MK-912, repeat assays, each datapoint shown, read-out: Percentage inhibition of ligand binding, Adrenergic α2A
[7] = compound at 0.1 μM, repeat assays, each datapoint shown
[8] = compound at 0.1 μM, repeat assays, each datapoint shown, read-out: Percentage inhibition of ligand binding, Adrenergic α1B
[9] = compound at 0.03 μM, [3H]Rauwolscine, repeat assays, each datapoint shown, 0.03 µM
[10] = compound at 0.03 μM, [3H]MK-912, repeat assays, each datapoint shown, read-out: Percentage inhibition of ligand binding, Adrenergic α2A
[11] = compound at 0.1 μM, [3H]MK-912, repeat assays, each datapoint shown
[12] = compound at 0.03 μM, repeat assays, each datapoint shown, read-out: Percentage inhibition of ligand binding, Adrenergic α1B
[13] = read-out: Percentage inhibition of ligand binding, Adrenergic α2B (0.03 μM), compound at 0.03 μM, [3H]Rauwolscine, repeat datapoints each shown
[14] = read-out: Percentage inhibition of ligand binding, Adrenergic α2B (0.1 μM), compound at 0.1 μM, [3H]Rauwolscine, repeat datapoints each shown
[15] = compound at 0.1 μM, [3H]MK-912, repeat datapoints each shown
[16] = read-out: Percentage inhibition of ligand binding, Adrenergic α2A (0.1 μM), compound at 0.1 μM, [3H]MK-912, repeat datapoints each shown
[17] = compound at 0.1 μM, repeat datapoints each shown
[18] = read-out: Percentage inhibition of ligand binding, Adrenergic α1B (0.1 μM), compound at 0.1 μM, repeat datapoints each shown
[19] = compound at 0.03 μM, repeat datapoints each shown
[20] = compound at 0.1 μM, [3H]Rauwolscine, repeat datapoints each shown, 0.1 µM
[21] = read-out: Percentage inhibition of ligand binding, Adrenergic α2A (0.03 μM), compound at 0.03 μM, [3H]MK-912, repeat datapoints each shown
[22] = read-out: Percentage inhibition of ligand binding, Adrenergic α1B (0.03 μM), compound at 0.03 μM, repeat datapoints each shown
[23] = compound at 0.1 μM, [3H]Rauwolscine, repeat assays, each datapoint shown, 0.1 µM

inhibition at 0.03 µM [1, 4] [%]	Percentage inhibition of ligand binding, Adrenergic α1B [3, 7]	inhibition at 0.1 µM [3, 8] [%]	Percentage inhibition of ligand binding, Adrenergic α2B [1, 9]	Ki [1] [nM]	Ki [2] [nM]	inhibition at 0.03 µM [3, 12] [%]	inhibition at 0.03 µM [1, 13] [%]	inhibition at 0.1 µM [1, 14] [%]	Percentage inhibition of ligand binding, Adrenergic α2A (0.1 μM) [2, 15]	Percentage inhibition of ligand binding, Adrenergic α1B (0.1 μM) [3, 17]	inhibition at 0.1 µM [3, 18] [%]	Compound	other results
				0.35	1.87					94% and 99%		Cc1ccc2c(c1)c1c(n2CC(O)c2ccncc2)CCN2CCCC12 (single isomer, unassigned) [129d]	Percentage inhibition of ligand binding, Adrenergic α2A (0.03 μM) ([2]; compound at 0.03 μM, [3H]MK-912, repeat datapoints each shown, 0.03 µM): 87%; Percentage inhibition of ligand binding, Adrenergic α1B (0.03 μM) [3, 19]: 93%
							23	41	88%	71%		CCN1CCc2c(c3cc(C)ccc3n2CC(O)c2ccc(C)cc2)C1 (stereo not drawn) [compound 203]	inhibition at 0.03 µM [3, 22]: 37%
	59% and 64%		76% and 83%	4.32	1100	34						Cc1ccc2c(c1)c1c(n2CC(N)c2ccncc2)CCN(C)C1 (single isomer, unassigned) [27a, 2-(1,2,3,4-tetrahydro-2,8-dimethylpyrido[4,3-b]indol-5-yl)-1-(pyridin-4-yl)ethanamine]	Percentage inhibition of ligand binding, Adrenergic α2B [1, 23]: 94%; Percentage inhibition of ligand binding, Adrenergic α2A [2, 11]: 2% and 11%
100		91	102%	0.62	199	68						Cc1ccc2c(c1)c1c(n2CC(O)c2ccncc2)CCN(C)CC1 (single isomer, unassigned) [13b, 2-(3,9-dimethyl-2,3,4,5-tetrahydroazepino[4,5-b]indol-6(1H)-yl)-1-(pyridin-4-yl)ethanol]	
99	57%	52	103%	0.64	176	25						CN1CCc2c(c3cc(Cl)ccc3n2CC(O)c2ccncc2)C1 (single isomer, unassigned) [4a]	inhibition at 0.1 µM [1, 5]: 104%; inhibition at 0.03 µM [2, 10]: 5%; Percentage inhibition of ligand binding, Adrenergic α2A [2, 11]: 24%; inhibition at 0.1 µM [2, 6]: 19%
99	54%	51		0.64	0.26	24						Cc1ccc2c(c1)c1c(n2CC(O)c2ccncc2)CCN(C)C1 (stereo not drawn) [compound 3]	Percentage inhibition of ligand binding, Adrenergic α2B [1, 23]: 103%; inhibition at 0.1 µM [1, 5]: 100%; inhibition at 0.03 µM [2, 10]: 4%

More lines, now with the values behind:

Compound	inhibition at 0.03 µM [1, 4] [%]	Percentage inhibition of ligand binding, Adrenergic α1B [3, 7]	inhibition at 0.1 µM [3, 8] [%]	Percentage inhibition of ligand binding, Adrenergic α2B [1, 9]	Ki [1] [nM]	Ki [2] [nM]	inhibition at 0.03 µM [3, 12] [%]	inhibition at 0.03 µM [1, 13] [%]	inhibition at 0.1 µM [1, 14] [%]	Percentage inhibition of ligand binding, Adrenergic α2A (0.1 μM) [2, 15]	Percentage inhibition of ligand binding, Adrenergic α1B (0.1 μM) [3, 17]	inhibition at 0.1 µM [3, 18] [%]	other results
Cc1ccc2c(c1)c1c(n2CC(C)(O)c2cccnc2)CCN(C)C1 (stereo not drawn) [compound 5, 1-(1,2,3,4-tetrahydro-2,8-dimethylpyrido[4,3-b]indol-5-yl)-2-(pyridin-3-yl)propan-2-ol]	100	21%	14										inhibition at 0.1 µM [1, 5]: 96%; inhibition at 0.1 µM [2, 6]: 13%
Cc1cnc2c(c1)c1c(n2CC(C)(O)c2cccnc2)CCN2CCCC12 (single isomer, unassigned) [26a]		52% and 61%		101% and 107%	0.56	113	32						inhibition at 0.03 µM [2, 10]: 14%; Percentage inhibition of ligand binding, Adrenergic α2A [2, 11]: 23% and 33%
Cc1cnc2c(c1)c1c(n2CCc2ccc(C)nc2)CCN(C)C1 [II-110, 3,6-dimethyl-9-(2-(6-methylpyridin-3-yl)ethyl)-6,7,8,9-tetrahydro-5H-pyrrolo[2,3-b:4,5-c′]dipyridine]								11	47	2%	36%	25	inhibition at 0.1 µM [2, 16]: 1%
CN1CCc2c(c3cccc(Cl)c3n2CCc2ccccc2)C1 [compound 216]					0.95	9.59		98	103	76% and 98%		65	Percentage inhibition of ligand binding, Adrenergic α2B (0.1 μM) [1, 20]: 106%; inhibition at 0.03 µM [2, 21]: 58%; Percentage inhibition of ligand binding, Adrenergic α1B (0.03 μM) [3, 19]: 47%; inhibition at 0.03 µM [3, 22]: 34%
COc1ccc(/C(C)=C/n2c3c(c4cc(Cl)ccc42)CCN(C)CC3)cc1F [compound 240]									83	87%	75%	74	Percentage inhibition of ligand binding, Adrenergic α2B (0.1 μM) [1, 20]: 97%; inhibition at 0.1 µM [2, 16]: 82%
C/C(=C\n1c2c(c3cc(Cl)ccc31)CN(C)CC2)c1ccncc1 [compound 185, 8-chloro-2,3,4,5-tetrahydro-2-methyl-5-((E)-2-(pyridin-4-yl)prop-1-enyl)-1H-pyrido[4,3-b]indole]					3.8	21		73	94			86	Percentage inhibition of ligand binding, Adrenergic α2B (0.03 μM) ([1]; compound at 0.03 μM, [3H]Rauwolscine, repeat datapoints each shown, 0.03 µM): 77%; Percentage inhibition of ligand binding, Adrenergic α2B (0.1 μM) [1, 20]: 97%; inhibition at 0.03 µM [2, 21]: 37%; inhibition at 0.1 µM [2, 16]: 62%; inhibition at 0.03 µM [3, 22]: 63%
